Results on three compounds are retold here after paper PMC11822212, “High-throughput screening identifies Aurora kinase B as a critical therapeutic target for Merkel cell carcinoma” (Nature Communications, 2025).

Structures are written as SMILES. Read-outs that look alike come from different tables or passages of the source.

One test relates to WAGA cells (VP-MCC). The test can be described thus: qHTS cell viability (CellTiter-Glo, 72 h; primary and follow-up small molecule screen). Type of test: cell-based, human.
For another test, the system named is CRL-7250 cells. The test can be described thus: qHTS cell viability (CellTiter-Glo, 72 h; primary screen), control cell line. The format is cell-based.
Test [1] has as its system six MCC cell lines and four control cell lines. The test can be described thus: qHTS cell viability, all 10 cell lines screened. Type of test: cell-based.
Another test deals with HACAT cells. The test can be described thus: qHTS cell viability (CellTiter-Glo, 72 h; primary screen), control cell line. Type of test: cell-based, human.
For another test, the system named is MCC13 cells (VN-MCC). The test can be described thus: qHTS cell viability (CellTiter-Glo, 72 h; primary and follow-up small molecule screen). The format is cell-based, human.
Test [2] concerns MCC cell lines (WAGA, MKL-1, MKL-2, MCC13, MCC26, UISO). The test can be described thus: qHTS cell viability, all six MCC cell lines as a group (mean AUC, MCC.avg). Type of test: cell-based, human.
In test [3] the test system is control cell lines (HACAT, HEK293T, CRL-7250, NIH-3T3). Briefly: qHTS cell viability, control cell lines as a group (mean AUC, Control.avg). The format is cell-based.
In the next test the test system is UISO cells (VN-MCC). The test can be described thus: qHTS cell viability (CellTiter-Glo, 72 h; primary and follow-up small molecule screen). The format is cell-based, human.
A further test has as its system MKL-2 cells (VP-MCC). The test is described as above. Type of test: cell-based, human.
Another test deals with HEK293T cells. The test can be described thus: qHTS cell viability (CellTiter-Glo, 72 h; primary screen), control cell line. Type of test: cell-based, human.
The test system of a further test is MCC26 cells (VN-MCC). The test can be described thus: qHTS cell viability (CellTiter-Glo, 72 h; primary and follow-up small molecule screen). Type of test: cell-based, human.
For another test, the system named is NIH-3T3 cells. The test can be described thus: qHTS cell viability (CellTiter-Glo, 72 h; primary screen), control cell line. Type of test: cell-based, mouse.
For a further test, the system named is MKL-1 cells (VP-MCC). The test can be described thus: qHTS cell viability (CellTiter-Glo, 72 h; primary and follow-up small molecule screen). Type of test: cell-based, human.
The test system of test [4] is VP-MCC cell lines (WAGA, MKL-1, MKL-2). The test can be described thus: qHTS cell viability, VP-MCC cell lines as a group (mean AUC, VP.MCC.avg). Type of test: cell-based, human.
Test [5] deals with VN-MCC cell lines (MCC13, MCC26, UISO). Briefly: qHTS cell viability, VN-MCC cell lines as a group (mean AUC, VN.MCC.avg). Type of test: cell-based, human.
[6] abbreviates: MIPE library, 11-point DRC, sheet S2E.
Setting [7] is: MIPE library, 11-point DRC, control cell line, sheet S2E.

`CC(C)(O)/C=C/C(=O)[C@](C)(O)[C@H]1[C@H](O)C[C@@]2(C)[C@@H]3CC=C4[C@@H](C=C(O)C(=O)C4(C)C)[C@]3(C)C(=O)C[C@]12C` [Cucurbitacin I] showed a WAGA_AUC in the test on WAGA cells (VP-MCC) of 216.289. In the test with CRL-7250 cells, the CRL7250_AUC stood at 234.715. For the same compound, the Control-MCC in [1] is reported as 62.7066. The same compound displayed an HACAT_AUC with HACAT cells of 326.184. This compound also registered an MCC13_AUC in the test with MCC13 cells (VN-MCC) of 297.405. The MCC_Avg_AUC in test [2] stood at 251.368. Moreover, the Control_Avg_AUC in test [3] worked out at 314.075. Besides, in the test with UISO cells (VN-MCC), the UISO_AUC is given as 252.668. For the same compound, in the test on MKL-2 cells (VP-MCC), the MKL2_AUC is reported as 186.366. The HEK293T_AUC with HEK293T cells worked out at 307.458. The MCC26_AUC in the test with MCC26 cells (VN-MCC) is 343.064. The compound also displayed an NIH3T3_AUC in the test on NIH-3T3 cells of 387.943. Also, the MKL1_AUC in the test on MKL-1 cells (VP-MCC) came out at 212.417. Moreover, in test [4], the Control-VP-MCC worked out at 109.051 and the VP-MCC_Avg_AUC came out at 205.024. In [5], the Control-VN-MCC is 16.3626 and the VN-MCC_Avg_AUC is on record as 297.712.

In the test on WAGA cells (VP-MCC) (setting [6]), `COc1cc(/C=C/C(=O)CC(=O)/C=C/c2ccc(O)c(OC)c2)ccc1O` [Curcumin] gave a WAGA_AUC of 392.592. In the test on CRL-7250 cells (setting [7]), the CRL7250_AUC worked out at 433.368. Also, the Control-MCC in test [1] (MIPE library, Control AUC minus MCC AUC (therapeutic window), sheet S2E) was determined as 27.7437. In the test on HACAT cells (setting [7]), this compound displayed an HACAT_AUC of 459.473. Besides, the MCC13_AUC in the test with MCC13 cells (VN-MCC) (setting [6]) was determined as 449.9. Also, the MCC_Avg_AUC in test [2] (MIPE library, mean AUC of six MCC cell lines, sheet S2E) turned out to be 407.139. The same compound gave a Control_Avg_AUC in test [3] (MIPE library, mean AUC of control cell lines, sheet S2E) of 434.883. Also, the UISO_AUC in the test with UISO cells (VN-MCC) (setting [6]) is listed as 416.827. In addition, the MKL2_AUC with MKL-2 cells (VP-MCC) (setting [6]) amounted to 342.595. Further, in the test with HEK293T cells (setting [7]), the HEK293T_AUC is 422.758. In the test on MCC26 cells (VN-MCC) (setting [6]), this compound showed an MCC26_AUC of 458.412. This compound also displayed an NIH3T3_AUC with NIH-3T3 cells (setting [7]) of 423.932. Further, the MKL1_AUC in the test with MKL-1 cells (VP-MCC) (setting [6]) is reported as 382.508. Also, the Control-VP-MCC in test [4] (MIPE library, Control AUC minus VP-MCC AUC (therapeutic window), sheet S2E) came to 62.3178. Also, the VP-MCC_Avg_AUC in test [4] (MIPE library, mean AUC of VP-MCC cell lines, sheet S2E) worked out at 372.565. In [5] (MIPE library, Control AUC minus VN-MCC AUC (therapeutic window), sheet S2E), this compound returned a Control-VN-MCC of -6.83. Moreover, the VN-MCC_Avg_AUC in test [5] (MIPE library, mean AUC of VN-MCC cell lines, sheet S2E) is on record as 441.713.

`COc1cc(/C=C2\CCC/C(=C\c3ccc(O)c(OC)c3)C2=O)ccc1O` [Cyclovalone]: the WAGA_AUC with WAGA cells (VP-MCC) (NPC library, qHTS dose-response AUC, WAGA) is recorded as 394.525. Moreover, the “Area under the dose-response curve (AUC) WAGA Replicate 1” value in the test on WAGA cells (VP-MCC) (follow-up screen, WAGA, replicate 1) amounted to 469.4. Further, in the test on WAGA cells (VP-MCC) (follow-up screen, WAGA, replicate 2), the “Area under the dose-response curve (AUC) WAGA Replicate 2” value is recorded as 402.6. For the same compound, the “Area under the dose-response curve (AUC) WAGA Replicate 3” value with WAGA cells (VP-MCC) (follow-up screen, WAGA, replicate 3) worked out at 413.8. The same compound came in with a CRL7250_AUC with CRL-7250 cells (NPC library, qHTS dose-response AUC, CRL7250 control) of 455.387. In test [1] (NPC library, therapeutic window: Control avg AUC minus MCC avg AUC), this compound showed a Control-MCC of 31.9905. This compound also displayed an HACAT_AUC in the test with HACAT cells (NPC library, qHTS dose-response AUC, HACAT control) of 441.291. In the test with MCC13 cells (VN-MCC) (NPC library, qHTS dose-response AUC, MCC13), this compound came in with an MCC13_AUC of 435.637. Moreover, the “Area under the dose-response curve (AUC) MCC13 Replicate 1” value with MCC13 cells (VN-MCC) (follow-up screen, MCC13, replicate 1) came out at 472.8. In addition, the “Area under the dose-response curve (AUC) MCC13 Replicate 2” value in the test with MCC13 cells (VN-MCC) (follow-up screen, MCC13, replicate 2) was 478.9. Besides, the “Area under the dose-response curve (AUC) MCC13 Replicate 3” value in the test on MCC13 cells (VN-MCC) (follow-up screen, MCC13, replicate 3) worked out at 414.2. Further, the MCC_Avg_AUC in test [2] (NPC library, mean AUC of six MCC cell lines) is on record as 409.645. The same compound yielded a Control_Avg_AUC in test [3] (NPC library, mean AUC of control cell lines) of 441.636. Moreover, the UISO_AUC in the test with UISO cells (VN-MCC) (NPC library, qHTS dose-response AUC, UISO) came to 420.96. In addition, the “Area under the dose-response curve (AUC) UISO Replicate 1” value with UISO cells (VN-MCC) (follow-up screen, UISO, replicate 1) is reported as 445.7. In the test on UISO cells (VN-MCC) (follow-up screen, UISO, replicate 2), the “Area under the dose-response curve (AUC) UISO Replicate 2” value is 433.0. Further, the “Area under the dose-response curve (AUC) UISO Replicate 3” value in the test with UISO cells (VN-MCC) (follow-up screen, UISO, replicate 3) turned out to be 430.4. The MKL2_AUC with MKL-2 cells (VP-MCC) (NPC library, qHTS dose-response AUC, MKL2) was 366.589. The “Area under the dose-response curve (AUC) MKL-2 Replicate 1” value in the test with MKL-2 cells (VP-MCC) (follow-up screen, MKL-2, replicate 1) came to 366.1. Also, in the test on MKL-2 cells (VP-MCC) (follow-up screen, MKL-2, replicate 2), the “Area under the dose-response curve (AUC) MKL-2 Replicate 2” value is recorded as 391.5. The “Area under the dose-response curve (AUC) MKL-2 Replicate 3” value in the test on MKL-2 cells (VP-MCC) (follow-up screen, MKL-2, replicate 3) came out at 417.0. The same compound gave an HEK293T_AUC with HEK293T cells (NPC library, qHTS dose-response AUC, HEK293T control) of 422.832. For the same compound, the MCC26_AUC with MCC26 cells (VN-MCC) (NPC library, qHTS dose-response AUC, MCC26) was 456.812. Moreover, the “Area under the dose-response curve (AUC) MCC26 Replicate 1” value in the test on MCC26 cells (VN-MCC) (follow-up screen, MCC26, replicate 1) was determined as 446.8. In addition, the “Area under the dose-response curve (AUC) MCC26 Replicate 2” value in the test on MCC26 cells (VN-MCC) (follow-up screen, MCC26, replicate 2) is recorded as 450.2. Further, the “Area under the dose-response curve (AUC) MCC26 Replicate 3” value with MCC26 cells (VN-MCC) (follow-up screen, MCC26, replicate 3) is 451.9. In the test on NIH-3T3 cells (NPC library, qHTS dose-response AUC, NIH3T3 control), the NIH3T3_AUC worked out at 447.034. In the test with MKL-1 cells (VP-MCC) (NPC library, qHTS dose-response AUC, MKL1), this compound had an MKL1_AUC of 383.35. Moreover, the “Area under the dose-response curve (AUC) MKL-1 Replicate 1” value in the test with MKL-1 cells (VP-MCC) (follow-up screen, MKL-1, replicate 1) turned out to be 414.7. In the test on MKL-1 cells (VP-MCC) (follow-up screen, MKL-1, replicate 2), the “Area under the dose-response curve (AUC) MKL-1 Replicate 2” value amounted to 411.0. In the test on MKL-1 cells (VP-MCC) (follow-up screen, MKL-1, replicate 3), the “Area under the dose-response curve (AUC) MKL-1 Replicate 3” value was found to be 407.6. The compound also yielded a VP-MCC_Avg_AUC in test [4] (NPC library, mean AUC of VP-MCC cell lines) of 381.488. In test [4] (NPC library, therapeutic window: Control avg AUC minus VP-MCC avg AUC), this compound had a Control-VP-MCC of 60.1479. Also, the VN-MCC_Avg_AUC in test [5] (NPC library, mean AUC of VN-MCC cell lines) is 437.803. In test [5] (NPC library, therapeutic window: Control avg AUC minus VN-MCC avg AUC), this compound displayed a Control-VN-MCC of 3.833.
